These results are taken from ChEMBL document CHEMBL5465560, “Selectivity Literature for EUbOPEN Chemogenomic Library” (2024).

The target in assay [1] is Platelet-derived growth factor receptor beta (Homo sapiens, UniProt P09619). The settings on record: at 10 µM.
Assay [2] deals with Serine/threonine-protein kinase PAK 1 (Homo sapiens) (UniProt Q13153). Nature of the assay: Selectivity interaction (KinomeScan (DiscoverX)) EUB0001049a PAK1. The settings on record: at 1 µM.
Assay [3] relates to Receptor-type tyrosine-protein kinase FLT3 (Homo sapiens), P36888 [UNDEFINED MUTATION]. The assay can be described thus: Selectivity interaction (KinomeScan (DiscoverX)) EUB0000695a FLT3. As to conditions: at 100 nM.
Chain of Receptor-type tyrosine-protein kinase FLT3 (Homo sapiens), P36888 [UNDEFINED MUTATION] (P36888 whole entry, looked up, change not shown): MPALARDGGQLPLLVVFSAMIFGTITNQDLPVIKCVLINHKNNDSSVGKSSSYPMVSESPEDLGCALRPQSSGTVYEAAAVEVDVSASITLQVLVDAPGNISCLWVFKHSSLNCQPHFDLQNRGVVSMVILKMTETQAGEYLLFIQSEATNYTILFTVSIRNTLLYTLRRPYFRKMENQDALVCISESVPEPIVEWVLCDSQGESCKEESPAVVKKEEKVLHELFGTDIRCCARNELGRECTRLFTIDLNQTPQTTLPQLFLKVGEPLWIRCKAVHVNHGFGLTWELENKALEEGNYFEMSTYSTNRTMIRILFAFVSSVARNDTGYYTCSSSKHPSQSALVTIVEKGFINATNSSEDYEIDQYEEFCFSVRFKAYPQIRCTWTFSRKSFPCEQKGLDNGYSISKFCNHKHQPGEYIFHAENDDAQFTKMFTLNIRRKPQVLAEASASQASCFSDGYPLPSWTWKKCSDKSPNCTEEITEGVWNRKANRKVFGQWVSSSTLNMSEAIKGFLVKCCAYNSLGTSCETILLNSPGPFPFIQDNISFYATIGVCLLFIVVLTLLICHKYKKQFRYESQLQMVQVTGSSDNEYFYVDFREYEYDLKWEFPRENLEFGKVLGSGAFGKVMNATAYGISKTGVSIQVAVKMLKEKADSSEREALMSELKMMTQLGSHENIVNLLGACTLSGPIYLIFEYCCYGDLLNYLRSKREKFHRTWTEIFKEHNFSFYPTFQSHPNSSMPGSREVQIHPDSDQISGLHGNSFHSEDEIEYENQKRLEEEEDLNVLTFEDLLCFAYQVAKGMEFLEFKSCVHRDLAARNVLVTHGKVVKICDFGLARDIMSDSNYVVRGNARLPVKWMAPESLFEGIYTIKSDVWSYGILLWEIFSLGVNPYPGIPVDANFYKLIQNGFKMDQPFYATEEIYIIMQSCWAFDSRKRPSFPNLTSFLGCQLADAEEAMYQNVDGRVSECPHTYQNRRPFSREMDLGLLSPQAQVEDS
Assay [4] has as its target T1, Mitogen-activated protein kinase kinase kinase 13 (Homo sapiens) (UniProt O43283).
T1 sequence (whole entry): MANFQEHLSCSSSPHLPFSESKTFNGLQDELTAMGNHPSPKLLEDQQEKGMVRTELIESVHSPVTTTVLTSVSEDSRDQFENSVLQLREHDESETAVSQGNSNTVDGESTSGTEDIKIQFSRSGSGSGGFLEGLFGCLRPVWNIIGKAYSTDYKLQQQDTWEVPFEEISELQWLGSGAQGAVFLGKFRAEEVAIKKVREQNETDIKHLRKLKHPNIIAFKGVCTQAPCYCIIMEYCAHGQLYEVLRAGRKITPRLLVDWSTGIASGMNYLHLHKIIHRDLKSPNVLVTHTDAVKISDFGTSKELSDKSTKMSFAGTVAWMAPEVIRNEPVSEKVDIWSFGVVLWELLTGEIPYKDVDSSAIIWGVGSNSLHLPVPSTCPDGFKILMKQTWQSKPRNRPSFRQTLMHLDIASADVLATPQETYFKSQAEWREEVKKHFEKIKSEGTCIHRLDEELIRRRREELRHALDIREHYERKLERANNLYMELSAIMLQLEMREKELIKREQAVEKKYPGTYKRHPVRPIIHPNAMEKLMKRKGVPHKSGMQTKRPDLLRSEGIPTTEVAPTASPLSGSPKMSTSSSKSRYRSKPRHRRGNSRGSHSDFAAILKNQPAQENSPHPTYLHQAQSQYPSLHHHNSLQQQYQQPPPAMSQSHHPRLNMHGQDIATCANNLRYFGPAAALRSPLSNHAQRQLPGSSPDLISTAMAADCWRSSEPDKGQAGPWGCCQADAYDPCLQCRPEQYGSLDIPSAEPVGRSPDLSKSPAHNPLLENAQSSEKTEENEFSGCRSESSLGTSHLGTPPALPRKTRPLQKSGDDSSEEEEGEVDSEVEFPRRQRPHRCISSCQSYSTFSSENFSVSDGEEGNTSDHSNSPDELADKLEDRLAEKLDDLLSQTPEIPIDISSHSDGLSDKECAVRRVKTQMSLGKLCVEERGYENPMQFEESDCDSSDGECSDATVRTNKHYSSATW
Nature of the assay: Selectivity interaction (KinomeScan (DiscoverX)) EUB0000045b MAP3K13.

Assay [5] concerns the target T2, Ephrin type-B receptor 2 (Homo sapiens) (UniProt P29323).
T2 sequence (whole entry): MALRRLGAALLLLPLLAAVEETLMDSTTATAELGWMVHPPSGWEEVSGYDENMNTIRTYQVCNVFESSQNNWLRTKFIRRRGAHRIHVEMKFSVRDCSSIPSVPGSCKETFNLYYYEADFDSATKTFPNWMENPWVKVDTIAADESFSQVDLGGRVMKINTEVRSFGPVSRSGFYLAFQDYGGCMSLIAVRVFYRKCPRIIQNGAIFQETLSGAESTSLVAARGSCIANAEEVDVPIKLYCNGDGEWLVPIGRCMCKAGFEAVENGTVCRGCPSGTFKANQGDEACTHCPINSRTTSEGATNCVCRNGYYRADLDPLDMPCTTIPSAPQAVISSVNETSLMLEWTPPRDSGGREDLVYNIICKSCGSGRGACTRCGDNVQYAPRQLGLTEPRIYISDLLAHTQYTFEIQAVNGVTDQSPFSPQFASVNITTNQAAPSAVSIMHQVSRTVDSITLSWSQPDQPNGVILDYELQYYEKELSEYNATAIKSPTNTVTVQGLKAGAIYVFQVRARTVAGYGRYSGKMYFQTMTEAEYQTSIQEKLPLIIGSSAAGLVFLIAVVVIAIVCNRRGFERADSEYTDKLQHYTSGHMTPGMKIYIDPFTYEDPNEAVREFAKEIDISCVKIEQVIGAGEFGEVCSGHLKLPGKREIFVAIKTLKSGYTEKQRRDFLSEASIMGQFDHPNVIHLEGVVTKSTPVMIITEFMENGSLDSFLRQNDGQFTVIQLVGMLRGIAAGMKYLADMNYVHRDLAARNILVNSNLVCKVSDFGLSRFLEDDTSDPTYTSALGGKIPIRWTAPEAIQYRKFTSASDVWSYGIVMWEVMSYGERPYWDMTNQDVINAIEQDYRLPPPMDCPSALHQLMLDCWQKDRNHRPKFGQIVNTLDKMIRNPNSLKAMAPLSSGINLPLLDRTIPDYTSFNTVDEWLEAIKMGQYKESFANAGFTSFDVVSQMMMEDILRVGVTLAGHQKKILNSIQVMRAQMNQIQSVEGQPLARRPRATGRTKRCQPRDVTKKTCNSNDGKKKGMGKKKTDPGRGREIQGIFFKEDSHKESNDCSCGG
The assay can be described thus: Selectivity interaction (SelectScreen profiling (Invitrogen)) EUB0000607a EPHB2. The settings on record: at 2 µM.

Chain of Serine/threonine-protein kinase PAK 1 (Homo sapiens) (Q13153 whole entry): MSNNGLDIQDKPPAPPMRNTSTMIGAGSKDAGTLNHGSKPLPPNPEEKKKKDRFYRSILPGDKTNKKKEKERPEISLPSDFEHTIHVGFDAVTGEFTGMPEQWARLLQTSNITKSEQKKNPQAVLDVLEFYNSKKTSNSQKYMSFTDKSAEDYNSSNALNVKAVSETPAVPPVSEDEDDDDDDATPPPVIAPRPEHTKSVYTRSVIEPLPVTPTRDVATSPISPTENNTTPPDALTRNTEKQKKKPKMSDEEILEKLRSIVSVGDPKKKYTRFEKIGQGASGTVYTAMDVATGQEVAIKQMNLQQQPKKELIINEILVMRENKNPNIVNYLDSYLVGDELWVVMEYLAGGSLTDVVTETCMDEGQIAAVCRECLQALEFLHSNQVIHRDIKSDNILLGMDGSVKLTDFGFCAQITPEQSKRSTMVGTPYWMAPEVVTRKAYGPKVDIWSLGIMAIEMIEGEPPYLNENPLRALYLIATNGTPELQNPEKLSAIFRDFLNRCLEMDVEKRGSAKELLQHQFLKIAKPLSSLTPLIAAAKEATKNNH
Chain of Platelet-derived growth factor receptor beta (P09619 whole entry): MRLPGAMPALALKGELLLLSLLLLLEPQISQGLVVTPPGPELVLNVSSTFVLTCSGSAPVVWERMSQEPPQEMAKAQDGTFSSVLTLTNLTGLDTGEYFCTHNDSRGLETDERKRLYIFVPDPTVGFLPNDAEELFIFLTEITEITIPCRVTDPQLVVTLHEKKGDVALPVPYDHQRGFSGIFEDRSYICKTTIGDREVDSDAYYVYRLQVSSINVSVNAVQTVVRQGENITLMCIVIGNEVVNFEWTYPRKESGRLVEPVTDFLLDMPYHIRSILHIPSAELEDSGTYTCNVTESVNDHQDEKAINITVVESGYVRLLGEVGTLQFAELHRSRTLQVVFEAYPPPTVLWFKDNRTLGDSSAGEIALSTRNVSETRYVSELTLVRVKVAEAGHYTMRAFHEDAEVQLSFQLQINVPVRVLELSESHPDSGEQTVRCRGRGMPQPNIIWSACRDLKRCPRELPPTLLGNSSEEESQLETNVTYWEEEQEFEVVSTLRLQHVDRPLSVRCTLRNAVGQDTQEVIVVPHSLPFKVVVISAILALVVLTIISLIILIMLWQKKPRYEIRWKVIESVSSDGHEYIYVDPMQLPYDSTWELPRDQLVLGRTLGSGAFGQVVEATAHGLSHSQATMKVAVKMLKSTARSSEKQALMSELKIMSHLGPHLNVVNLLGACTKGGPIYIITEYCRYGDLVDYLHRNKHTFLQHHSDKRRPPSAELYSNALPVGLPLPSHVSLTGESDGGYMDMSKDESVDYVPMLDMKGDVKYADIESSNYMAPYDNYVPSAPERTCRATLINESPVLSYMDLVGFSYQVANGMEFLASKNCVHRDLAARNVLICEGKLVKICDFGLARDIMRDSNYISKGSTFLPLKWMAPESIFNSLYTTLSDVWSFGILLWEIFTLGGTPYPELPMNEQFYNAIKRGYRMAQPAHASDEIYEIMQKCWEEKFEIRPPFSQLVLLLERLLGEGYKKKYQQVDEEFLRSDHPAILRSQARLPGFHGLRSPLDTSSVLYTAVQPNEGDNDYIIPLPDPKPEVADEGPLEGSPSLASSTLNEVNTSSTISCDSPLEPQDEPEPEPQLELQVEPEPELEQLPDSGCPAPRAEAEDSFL

Regarding `Cc1cc([C@@H](C)Nc2ccccc2C(=O)O)c2nc(N3CCOCC3)cc(=O)n2c1` [AZD-6482], the % of control in assay [1] is 100%.
The compound `COc1cc(Nc2nc(C)cc(-c3cnn4nc(OC)ccc34)n2)cc(C(F)(F)F)c1` had a % of control in assay [2] of 86%.
For `Cc1cc(F)c(C(=O)Nc2cccc(-c3nncn3C(C)C)n2)cc1-n1cnc(C2CC2)c1`, the % of control in assay [3] was 100%.
As to `C=CC(=O)Nc1cc(-n2c(=O)ccc3cnc4ccc(-c5ccc(NS(C)(=O)=O)cc5)cc4c32)ccc1C`, the % of control in assay [4] (at 1 µM) and in assay [4] (at 10 µM) was 100% throughout.
In the case of `CNC(=O)Nc1ccc(-c2nc(N3CC4CCC(C3)O4)c3cnn(C4CCC5(CC4)OCCO5)c3n2)cc1`, the % of inhibition in assay [5] came to 6%.
